Ends that are not written are not given here.

The MIC is the least concentration at which growth counts as inhibited. High values mean weaker potency, low ones greater potency.

Assay [1] has as its system Cladosporium herbarum. The conditions noted are these: 2% malt extract medium, 1.5–2×10^3 spores/ml, room temperature, 3d, visual screening; lowest concentration with no visible growth; at least two independent replicates.
Assay [2] has as its system Alternaria alternata. The conditions noted are these: 2% malt extract medium, 1.5–2×10^3 spores/ml, room temperature, 3d, OD590 nm; lowest concentration with no visible growth; at least two independent replicates.
For assay [3], the system named is Botrytis cinerea. As to conditions: 2% malt extract medium, 1.5–2×10^3 spores/ml, room temperature, 3d, visual screening; lowest concentration with no visible growth; at least two independent replicates.
Assay [4] relates to Clavibacter michiganensis ssp. michiganensis. The conditions noted are these: Table 4, incubation period 2d; LB-medium, 27°C.
For assay [5], the system named is Pectobacterium carotovorum ssp. carotovorum. As to conditions: Table 4, incubation period 1d; LB-medium, 27°C.
The subject of assay [6] is Pseudomonas syringae pv. tomato. As to conditions: Table 4, incubation period 1d; LB-medium, 27°C.
Assay [7] has as its system Xanthomonas vesicatoria. As to conditions: Table 4, incubation period 2d; LB-medium, 27°C.
In assay [8] the test system is Pseudomonas corrugata. As to conditions: Table 4, incubation period 2d; LB-medium, 27°C.
Assay [9] concerns Pseudomonas syringae pv. syringae. The conditions noted are these: Table 4, incubation period 1d; LB-medium, 27°C.

Take KRRLIARILRLAARALVKKR-NH2 [SP13]: the MIC in assay [1] was 20 µg/mL; in [2], over 100 µg/mL; in assay [3], over 100 µg/mL.
For LRFLKKILKHLF-NH2 [SP10], the MIC in assay [1] is 10 µg/mL; in [2], over 100 µg/mL; in assay [3], over 100 µg/mL.
Turning to KRRKLIKILKLIIKLIRKKR-NH2 [SP13-6], the MIC in assay [4] was 0.1 µg/mL; in [5], over 10 µg/mL; in assay [6], 2.5 µg/mL; in assay [7] it was 0.1 µg/mL; in assay [8], 2.5 µg/mL; in [9], 1.0 µg/mL.
Take RKKRVKLLKRLV-NH2 [SP1-2]: the MIC is 10 µg/mL in assay [4]; over 10 µg/mL in [5]; 5.0 µg/mL in [6]; 5.0 µg/mL in assay [7]; 0.5 µg/mL in [8]; 2.5 µg/mL in [9].
Turning to KRRLIFRILKLFFRFLVKKR-NH2 [SP13-4], the MIC in assay [4] was 1.0 µg/mL; in assay [5], over 10 µg/mL; in assay [6] it was over 10 µg/mL; in [7], 2.5 µg/mL; in [8], 5.0 µg/mL; in [9], 10 µg/mL.
As for RKKKFKFFKRLF-NH2 [SP1-12], the minimal inhibitory concentration (MIC) in [4] is 0.5 µg/mL; in [5], over 10 µg/mL; in assay [6], over 10 µg/mL; in [7] it was 0.5 µg/mL; in [8], 0.25 µg/mL; in assay [9] it was 0.1 µg/mL.
Take LRFAKKALKKLF-NH2 [SP10-3]: the MIC in assay [4] is 2.5 µg/mL; in [5] it was over 10 µg/mL; in assay [6] it was 0.25 µg/mL; in [7] it was 2.5 µg/mL; in assay [8] it was 1.0 µg/mL; in [9] it was 0.25 µg/mL.
For KRRLFLFRLFRLFLRLFLKK-NH2 [SP13-12], the MIC in assay [4] was 2.5 µg/mL; in assay [5], over 10 µg/mL; in assay [6], 5.0 µg/mL; in [7], 2.5 µg/mL; in [8], 10 µg/mL; in assay [9] it was over 10 µg/mL.
On to RKKRKKLLKRLI-NH2 [SP1-20], for which the MIC in [4] is 5.0 µg/mL; in assay [5] it was over 10 µg/mL; in assay [6], 10 µg/mL; in [7], 10 µg/mL; in [8], 0.5 µg/mL; in assay [9] it was 0.25 µg/mL.
For the substance RKKKFKFFKRFF-NH2 [SP1-13], the MIC in assay [4] is 0.25 µg/mL; in assay [5] it was over 10 µg/mL; in assay [6] it was 2.5 µg/mL; in assay [7] it was 0.5 µg/mL; in assay [8], under 0.1 µg/mL; in assay [9], 0.1 µg/mL.
Consider KRRLIARILRLAIRALVKKR-NH2 [SP13-1], for which the MIC was 0.5 µg/mL in assay [4]; over 10 µg/mL in assay [5]; 1.0 µg/mL in [6]; 0.5 µg/mL in [7]; 2.5 µg/mL in assay [8]; 1.0 µg/mL in assay [9].
Turning to RKKKIKIIKKII-NH2 [SP1-9], the MIC in assay [4] is 2.5 µg/mL; in [5], over 10 µg/mL; in assay [6], 5.0 µg/mL; in assay [7], 2.5 µg/mL; in assay [8], 5.0 µg/mL; in [9] it was 0.5 µg/mL.
In the case of KRRILIRILKLIIKLILKKR-NH2 [SP13-5], the MIC in assay [4] was 2.5 µg/mL; in assay [5] it was over 10 µg/mL; in assay [6], 2.5 µg/mL; in [7], 1.0 µg/mL; in assay [8], 10 µg/mL; in assay [9], over 10 µg/mL.
